Experiments:
male C57/BL6 mice = assay: Mouse basal locomotor activity; format: in vivo; conditions: po
Experimental: To measure basal locomotor activity, male C57/BL6 mice (8-16 weeks) (Jackson Laboratories, Sacramento, Calif.) were transferred in home cages to the testing room approximately 60 minutes prior to testing. Approximately 15 minutes after arrival in the testing room, a dark cycle commenced, with lights turning off and infrared lights turning on for experimenter visibility. Thirty minutes after the lights were turned off, animals were individually weighed and administered either vehicle (20% hydroxypropyl-β-cyclodextrin) Compound 13 (1, 2, 5, 10, or 20 mg/kg P.O.), or another GPR52 agonist (10 mg/kg P.O.) and returned to home cages. Fifteen minutes later, mice were placed into locomotor cages and activity was recorded for 60 minutes.

male 129Sv/Ev mice = assay: Prepulse inhibition of the startle response in mice; format: in vivo, mouse; conditions: mice with relatively low PPI; Compound 13 10 mg/kg P.O.; FIG. 25A
Experimental: Prepulse inhibition testing was conducted in enclosed startle chambers (Kinder Scientific StartleMonitor System, Kinder Scientific, Poway, Calif.) in which animals were placed into restrainers secured onto startle-sensing plates. A constant background white noise of 65 dB was audible in the chambers throughout testing. […]
For each animal, mean startle amplitude for each trial type during the 35-trial block was calculated, and percent prepulse inhibition (% PPI) for each prepulse intensity was calculated as the percent decrease in the mean startle amplitude in response to a given prepulse and 120 dB startle stimulus relative to the mean startle amplitude in response to the 120 dB startle stimulus alone. The % PPI was then calculated for each animal as the mean % PPI across all four prepulse intensities. […]

male Sprague-Dawley rats = assay: Catalepsy (vertical grid) in rats; format: in vivo, rat; conditions: Compound 13 5-100 mg/kg P.O., haloperidol 0.1, 0.3, or 1 mg/kg S.C., 45 minutes post-dose
Experimental: Catalepsy is used as a model for detecting extrapyramidal side effects of antipsychotic drugs. […] The rats were removed from home cages 45 minutes later and placed on a vertical stainless steel grid, and the latency to move both forepaws from their starting position was measured for a maximum of 30 seconds. The test was repeated three times consecutively.
Catalepsy is expressed as the average latency to move both forepaws over the three trials. Latency increased in the rats administered haloperidol (see FIG. 27B), but was unchanged in rats administered Compound 13 (see FIG. 27A).

For `O=C(NCCO)c1cccc2c1CCN2c1cc(Cc2cccc(C(F)(F)F)c2)ccn1` [Compound 13, N-(2-Hydroxyethyl)-1-(4-(3-(trifluoromethyl)benzyl)pyridin-2-yl)indoline-4-carboxamide], the inhibition at 10 mg/kg (male C57/BL6 mice; 10 mg/kg P.O.) was 70%, the ED50 (male C57/BL6 mice; 1 h, P.O., activity recorded for 60 minutes, read-out: ED50 (% Inhibition in Mouse Basal Locomotor Activity)) was 2.7 mg/kg and the “basal % PPI in 'poor performers'” value (male 129Sv/Ev mice) was “increased”. For the same compound, the “catalepsy: average latency to move both forepaws” value (male Sprague-Dawley rats) was “unchanged”.

From patent publication US9676758B2, “1-heteroaryl-indoline-4-carboxamides as modulators of GPR52 useful for the treatment or prevention of disorders related thereto” (Arena Pharmaceuticals, Inc., priority 2015, dated 2017)
